{
  "source": "patent US5686494A",
  "about": "“Pharmaceutical preparations for ameliorating epigastric functional disorders” (Daiichi Pharmaceutical Co., Ltd., priority 1993, dated 1997)",
  "key": {"[1]": {"tested_on": "dopamine-induced delayed gastric emptying model", "experiment": "Effect on gastric emptying in dopamine-induced delayed gastric emptying model (phenol red method)", "type": "in vivo, male Slc:ddY mice", "settings": "for Gastric emptying rate (%): 90 min before phenol red, dopamine 30 mg/kg i.p. 5 min before, measured 30 min after phenol red", "protocol": "Effect on gastric emptying in dopamine-induced delayed gastric emptying model (phenol red method) After overnight fasting, male Slc:ddY mice of 6 to 7 weeks of age (body weight, 28 to 32 g; SLC, Shizuoka, Japan) were divided into 7 groups, namely a group in which dopamine was administered with no drug treatment (No. 1 in Table 2), groups in which dopamine was administered after administration of the compound A (Nos. 2 to 5), a group in which dopamine was administered after administration of cisapride as a positive control (No. 6) and a group in which dopamine and drug treatments were not made (No. 7). Seven mice were used in each group. First, 90 minutes before the administration of phenol red, 0.01 mg/kg, 0.03 mg/kg, 0.1 mg/kg or 0.3 mg/kg of the compound A suspended in 0.5% carboxymethylcellulose was orally administered to mice of the compound A administration groups (Nos. 2 to 5), 3 mg/kg of cisapride suspended in 0.5% carboxymethylcellulose was orally administered to mice as the positive control drug administration group (No. 6) and 0.5% carboxymethylcellulose was orally administered to mice as the dopamine administration group with no drug treatment (No. 1) and the no drug and no dopamine treatment group (No. 7). Next, 5 minutes before the phenol red administration, 30 mg/kg of dopamine which has been dissolved in distilled water and then diluted with physiological saline was intraperitoneally administered to mice of each group. Thereafter, phenol red dissolved in 1% methylcellulose was orally administered with a dose of 0.2 mg/0.3 ml/mouse. […] mouse/X)]×100 (X is an average value of the recovered phenol red remained in the stomach excised from each mouse sacrificed just after the phenol red administration)"}, "[2]": {"tested_on": "cholecystokinin (CCK)-induced delayed gastric emptying model", "experiment": "Effect on gastric emptying in cholecystokinin (CCK)-induced delayed gastric emptying model (Phenol red method)", "type": "in vivo, male Slc:ddY mice", "settings": "for Gastric emptying rate (%): 90 min before phenol red, CCK 5 μg/kg i.p. 5 min before, measured 30 min after phenol red", "protocol": "Effect on gastric emptying in cholecystokinin (CCK)-induced delayed gastric emptying model (Phenol red method)\nAfter overnight fasting, male Slc:ddY mice of 6 to 7 weeks of age (body weight, 20 to 30 g; SLC, Shizuoka, Japan) were divided into six groups: a group in which cholecystokinin was administered with no drug treatment (No. 1 in Table 1), groups in which cholecystokinin was administered after administration of compound A (Nos. 2 to 4), a group in which cholecystokinin was administered after administration of cisapride as a positive control (No. 5) and a group in which cholecystokinin and drug treatments were not made (No. 6). Five to 15 mice were used in each group.\nFirst, 90 minutes before the administration of phenol red, 1 mg/kg, 3 mg/kg or 10 mg/kg of compound A suspended in 0.5% carboxymethylcellulose was orally administered to mice of the compound A administration groups, respectively, (Nos. 2 to 4), 3 mg/kg of cisapride suspended in 0.5% carboxymethylcellulose was orally administered to mice as the positive control drug administration group (No. 5) and 0.5% carboxymethylcellulose was orally administered to mice of the […] (No. 1) and the no drug and no cholecystokinin treatment group (No. 6). Next, 5 minutes before the phenol red administration, 5 μg/kg of cholecystokinin (CCK8s, manufactured by Sigma) which had been dissolved in distilled water and then diluted with physiological saline was intraperitoneally administered to mice of each group. Thereafter, phenol red dissolved in 1% methylcellulose was orally administered with a dose of 0.2 mg/0.3 ml/mouse. After 30 minutes of the phenol red administration, each mouse was sacrificed by cervical dislocation to excise the stomach, and the amount of phenol red remaining in the excised stomach was measured to calculate the gastric emptying rate (%) by the following formula.\nGastric emptying rate (%)=[1-(phenol red recovered from drug-applied\n(X is the average value of the recovered phenol red remaining in the stomach excised from each mouse sacrificed just after the phenol red administration)"}, "[3]": {"tested_on": "patients diagnosed as chronic gastritis and the like without morphological changes in the stomach", "experiment": "Effect on gastric emptying in patients (acetaminophen method)", "type": "in vivo, human", "text": "(§1) Effects on subjective symptoms and gastric emptying in patients\n(§2) A total of 8 patients diagnosed as chronic gastritis and the like without morphological changes in the stomach were examined in this test, each patient complaining of medium or more intense chronic epigastric fullness, having other NUD (or epigastric dysfunction complaints) such as gastric oppression, nausea, vomiting, anorexia, heartburn and the like and also showing delayed gastric emptying.\n(§3) Each patient was allowed to take 2 tablets of the test pharmaceutical preparation of Example 1 three times a day 15 to 30 minutes before morning, noon and evening meals (600 mg of compound A/day), and the administration was continued for 2 weeks. Subjective symptoms (Table 3) were checked before and 2 weeks after the administration and gastric emptying (Table 4) was checked before and 2 weeks after the administration.\nGastric emptying was examined in accordance with the acetaminophen method of Heading et al (cf. Br. J. Pharmacol. 47 415-421 (1973)). That is, each patient after overnight fasting with no drug administration was allowed to take a test food (200 ml of a liquid natural food OKUNOS-A, thoroughly mixed with 1.5 g of acetaminophen) at 9 a.m. and then to take a seat without eating and drinking until completion of the examination. Heparinized blood samples were collected before and 45 minutes after the administration. Thereafter, serum was separated from each sample to measure serum acetaminophen concentration by a high performance liquid chromatography (HPLC)."}, "[4]": {"tested_on": "patients diagnosed as chronic gastritis and the like without morphological changes in the stomach", "experiment": "Effects on subjective symptoms in patients", "type": "in vivo, human", "text": "as §1, §2, §3\nSubjective symptoms were examined by checking existence of the symptoms before and 2 weeks after the administration."}, "[5]": {"settings": "2 tablets of Example 1 three times a day (600 mg of compound A/day), 2 weeks"}},
  "note": "“And” between values parts separate entries of the source, which are not always exact repeats. Equal values may be shown once. Ends that are not written are not given here. * marks the point of attachment. SO3H = O=S(=O)(O)*",
  "data": [
    {"compound": "COc1cc(N)c(Cl)cc1C(=O)NC1CCN(CCCOc2ccc(F)cc2)CC1OC", "note": "(stereo not drawn) [Cisapride, cisapride, reference compound]", "values": [
      {"measurement": "Gastric emptying rate (%)", "setting": "[1]; 3 mg/kg oral", "value": "23.4 ± 6.6", "unit": "%"},
      {"measurement": "Gastric emptying rate (%)", "setting": "[2]; positive control, 3 mg/kg oral", "value": "36.7 ± 6.8", "unit": "%"}
    ]},
    {"compound": "CNC(=O)c1cccc(NCC(=O)NCCc2ccc(OC)c(OC)c2)c1", "note": "[Compound A, 3-[[[2-(3,4-dimethoxyphenyl)ethyl]carbamoyl]methyl]amino-N-methylbenzamide]", "values": [
      {"measurement": "Gastric emptying rate (%)", "setting": "[1]; 0.01 mg/kg oral", "value": "6.9 ± 4.7", "unit": "%"},
      {"measurement": "gastric emptying rate improved", "setting": "[1]; 0.01 mg/kg, 0.03 mg/kg, 0.1 mg/kg or 0.3 mg/kg oral, vs dopamine-treated mice with reduced gastric emptying rate", "value": "improved"},
      {"measurement": "Gastric emptying rate (%)", "setting": "[1]; 0.03 mg/kg oral", "value": "21.2 ± 6.1", "unit": "%"},
      {"measurement": "Gastric emptying rate (%)", "setting": "[1]; 0.1 mg/kg oral", "value": "18.1 ± 8.3", "unit": "%"},
      {"measurement": "Gastric emptying rate (%)", "setting": "[1]; 0.3 mg/kg oral", "value": "36.2 ± 10.2", "unit": "%"},
      {"measurement": "Gastric emptying rate (%)", "setting": "[2]; 1 mg/kg oral", "value": "24.8 ± 2.1", "unit": "%"},
      {"measurement": "gastric emptying rate improved", "setting": "[2]; 1 mg/kg, 3 mg/kg or 10 mg/kg oral, vs CCK-treated mice with reduced gastric emptying rate", "value": "improved in a dose dependent fashion"},
      {"measurement": "Gastric emptying rate (%)", "setting": "[2]; 3 mg/kg oral", "value": "27.6 ± 4.2", "unit": "%"},
      {"measurement": "Gastric emptying rate (%)", "setting": "[2]; 10 mg/kg oral", "value": "40.5 ± 6.9", "unit": "%"},
      {"measurement": "Serum acetaminophen concentration, After administration", "setting": "[3]; 2 weeks after start, 600 mg of compound A/day oral, individual patients No. 1 to 8 in order, 45 minutes after 1.5 g acetaminophen in test food", "value": "7.6 µg/mL and 10.1 µg/mL and 12.8 µg/mL and 7.8 µg/mL and 7.3 µg/mL and 8.1 µg/mL and 8.5 µg/mL and 7.1 µg/mL"},
      {"measurement": "amelioration of gastric emptying (cases)", "setting": "[3]; 2 weeks, 600 mg of compound A/day oral", "value": "7 of the 8"},
      {"measurement": "Serum acetaminophen concentration, Before administration", "setting": "[3]; baseline before drug administration, individual patients No. 1 to 8 in order, 45 minutes after 1.5 g acetaminophen in test food", "value": "7.6 µg/mL and 8.4 µg/mL and 8.0 µg/mL and 6.1 µg/mL and 6.9 µg/mL and 6.6 µg/mL and 5.2 µg/mL and 4.6 µg/mL"},
      {"measurement": "Symptom-disappeared cases/tested cases: Abdominal distension", "setting": "[4]; [5]", "value": "7/7"},
      {"measurement": "Symptom-disappeared cases/tested cases: Anorexia", "setting": "[4]; [5]", "value": "3/3"},
      {"measurement": "Symptom-disappeared cases/tested cases: Epigastralgia", "setting": "[4]; [5]", "value": "4/4"},
      {"measurement": "Symptom-disappeared cases/tested cases: Gastric disphoria", "setting": "[4]; [5]", "value": "4/4"},
      {"measurement": "Symptom-disappeared cases/tested cases: Heartburn", "setting": "[4]; [5]", "value": "2/2"},
      {"measurement": "Symptom-disappeared cases/tested cases: Nausea", "setting": "[4]; [5]", "value": "4/4"},
      {"measurement": "Symptom-disappeared cases/tested cases: Vomiting", "setting": "[4]; [5]", "value": "3/3"},
      {"measurement": "disappearance of subjective symptoms", "setting": "[4]; patients No. 1 to No. 8, after 2 weeks, 600 mg/day oral", "value": "complete disappearance of subjective symptoms"}
    ]},
    {"compound": "NCCc1ccc(O)c(O)c1", "note": "[dopamine, reference compound]", "values": [
      {"measurement": "gastric emptying rate reduced to (fraction)", "setting": "[1]; 30 mg/kg dopamine intraperitoneal, no drug", "value": "1/20"}
    ]},
    {"compound": "cholecystokinin (DY(SO3H)MGWMDF; not fully specified (C-terminus); ends and bridges not checked; UniProt P06307 96-103, looked up) [cholecystokinin (CCK8s, manufactured by Sigma), reference compound]", "values": [
      {"measurement": "gastric emptying rate reduced to (fraction)", "setting": "[2]; 5 μg/kg cholecystokinin intraperitoneal, no drug", "value": "1/3"}
    ]}
  ]
}
